The values that follow come from EP4620955A1, “MC4R ANTAGONIST COMPOUND, PHARMACEUTICAL COMPOSITION AND PHARMACEUTICAL USE THEREOF” (Changchun Genescience Pharmaceutical Co., Ltd., priority 2022, dated 2024).

Data set [1] is described as follows: Pharmacokinetic study on the tested compound in SD male rats. The format is in vivo. As to conditions: IV 1 mpk/PO 2 mpk; for AUC / Cmax / clearance / half-life: Sprague-Dawley (SD), rat, plasma. On the procedure:
On the day of administration, the tested compound was prepared with 5% DMSO + 5% Solutol + 90% Saline as a solvent into a solution for administration for use.
The solution for administration was administered to an intravenous injection IV group at a dose of 1 mg/kg in a concentration of 0.2 mg/mL. The solution for administration was administered to an oral gavage PO group at a dose of 2 mg/kg in a concentration of 0.2 mg/mL. The animals in the PO group were required to fast overnight in advance, drink water freely, and be fed 4 hours after administration. The IV group was not required to fast.
The animals were weighed before administration. On the day of administration, the solution was IV/PO-administered once in an administration amount calculated based on the weight. In the IV group, blood was collected from veins at 0.083 h, 0.25 h, 0.5 h, 1.0 h, 2.0 h, 4.0 h, 8.0 h, and 24 h after administration. In the PO group, blood was collected from veins at 0.25 h, 0.5 h, 1.0 h, 2.0 h, 4.0 h, 6.0 h, 8.0 h, and 24 h after administration. The amount of blood collected was about 0.20 mL. K2-EDTA was used in blood collection tubes as an anticoagulant. The collected blood sample was centrifuged (centrifugation conditions: 6800 g, 6 min, 2°C to 8°C) within 1 h to obtain plasma. The to-be-tested sample was stored in a refrigerator at -80°C before analysis.
The concentration of the tested compound in the plasma of the SD male rats was detected by the validated LC-MS/MS method.

Data set [2] addresses T1, MC4R (Homo sapiens, UniProt P32245).
T1 construct: expressed in transfected cells; host or cells: flipin-293-MC4 (Flp-In 293 host, hygromycin selection)
Description: Assay of MC4R antagonist activity in cells in vitro (cAMP assay, Melanotan I stimulation). The format is cell-based. To be noted: flipin-293-MC4 cell line, Melanotan I as agonist. The procedure, abridged: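 flipin-293-MC4 cells in HBSS, 20 mM HEPES, 0.1% BSA, 500 µM IBMX were preincubated with compound for 10 min at 37°C, then stimulated with Melanotan I for 30 min at 37°C. cAMP measured by TR-FRET (Eu cAMP tracer/ULight anti-cAMP, 615/665 nm). Percent inhibition versus controls fitted to a four-parameter curve for IC50.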
Background: Changes in cAMP serve as a functional read-out for many G protein-coupled receptors.

Data set [3] deals with T2, CYP 3A4M (Homo sapiens, UniProt P08684).
T2 construct: from tissue; host or cells: human liver microsomes (HLM)
T2 sequence (P08684 whole entry): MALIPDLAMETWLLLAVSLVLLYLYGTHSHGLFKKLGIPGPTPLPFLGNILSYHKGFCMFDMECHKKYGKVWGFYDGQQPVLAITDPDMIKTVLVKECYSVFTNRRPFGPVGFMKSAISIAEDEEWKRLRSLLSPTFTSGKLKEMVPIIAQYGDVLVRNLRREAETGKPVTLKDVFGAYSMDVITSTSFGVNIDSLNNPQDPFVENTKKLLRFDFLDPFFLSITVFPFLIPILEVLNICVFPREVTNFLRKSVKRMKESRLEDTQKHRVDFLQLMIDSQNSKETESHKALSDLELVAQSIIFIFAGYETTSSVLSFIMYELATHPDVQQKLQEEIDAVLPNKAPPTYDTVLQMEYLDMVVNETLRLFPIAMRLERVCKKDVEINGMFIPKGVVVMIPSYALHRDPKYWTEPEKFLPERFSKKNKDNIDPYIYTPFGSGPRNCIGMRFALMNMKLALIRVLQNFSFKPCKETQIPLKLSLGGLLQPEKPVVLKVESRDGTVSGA
Description: Inhibition of P450 enzyme (CYP 3A4, midazolam as substrate) in human liver microsomes. The format is in vitro ADME. As to conditions: human liver microsomes 0.100 mg/mL, midazolam 5.00 µM as substrate, 5 min incubation; read-out: CYP 3A4M IC50. On the procedure:
The inhibitory effect of the tested compound on 3A4-M (with midazolam as a substrate) in human liver microsomes is evaluated in vitro to assess the safety of the compound.
In this study, the inhibition of CYP 3A4 enzyme in human liver microsomes by the tested compound was investigated using the human liver microsomal system and the cytochrome P450 enzyme probe substrate recommended by the FDA Guidance for In Vitro Drug Interaction Studies. The human liver microsomes were incubated separately with the tested compound of different concentrations (0 µM to 30.0 µM) and corresponding probe substrates. Then, the changes of activity of the CYP enzyme were determined, and the IC50 value was calculated, to evaluate the inhibitory potential of the tested compound on the CYP 3A4 enzyme.
Test group (TG): The human liver microsomes were incubated separately with the tested compound of different concentrations, NADPH (in a final concentration of 2.00 mM), and probe substrates (Table 4) of different enzymes in subfamilies for 5 min.
Positive control group (PC): The human liver microsomes were incubated separately with an inhibitor (Table 4), NADPH (in a final concentration of 2.00 mM), and a probe substrate (Table 4) of 3A4M for 5 min. Table 4 Probe substrate of each enzyme in the subfamily, inhibitor, and incubation system
At the end of the incubation, the reaction was terminated with a stop solution.
8 µL of 30 mM test sample was transferred to 12 µL of DMSO to give a 12 mM test sample intermediate solution, and then diluted with DMSO to give test sample working solutions in different concentrations (12 mM, 4 mM, 1.33 mM, 0.433 mM, 0.147 mM, 0.049 mM, and 0.0164 mM).
To 12 µL of DMSO was added 8 µL of 2.5 mM CYP3A4 inhibitor ketoconazole stock solution to give a 1 mM positive control inhibitor working solution.
(§1) 199 µL of 0.2 mg/mL HLM and 1 µL of test sample working solution (12 mM, 4 mM, 1.33 mM, 0.433 mM, 0.147 mM, 0.049 mM, and 0.0164 mM) were mixed uniformly. 30 µL of this liver microsome solution was added to a 96-well plate, and then 10 µL of substrate working solution (320 µM testosterone or 20 µM midazolam) was added. This preparation process was carried out in duplicate. After pre-incubation at 37°C for 5 min, 15 µL of 8 mM NADPH solution pre-warmed at 37°C for 5-10 min was added to initiate the reaction. After incubation in the 96-well plate at 37°C for 5 min, 180 µL of acetonitrile/methanol (ACN:MeOH = 1:1) solution containing the internal standard (IS) was added to terminate the reaction. The 96-well plate was shaken at 600 rpm for 5-10 min, and then centrifuged at 6000 rpm for 15 min. 80 µL of supernatant was taken and added to 120 µL of ultrapure water, shaken uniformly, and then detected by LC-MS/MS.
as §1, with “1 mM positive control inhibitor (ketoconazole)” for “test sample”, “solution” for “solution (12 mM, 4 mM, 1.33 mM, 0.433 mM, 0.147 mM, 0.049 mM, and 0.0164 mM)”, “(20” for “(320 µM testosterone or 20”, “ACN:MeOH (1:1)” for “acetonitrile/methanol (ACN:MeOH = 1:1)”, “IS” for “the internal standard (IS)”, “LC-MS/MS. […]” for “LC-MS/MS.”
(Microsomes from liver hold many membrane-bound enzymes, among them those of drug oxidation.)

Each structure is given as a SMILES string. Bounds are passed on as bounds.

T1 sequence (P32245 whole entry): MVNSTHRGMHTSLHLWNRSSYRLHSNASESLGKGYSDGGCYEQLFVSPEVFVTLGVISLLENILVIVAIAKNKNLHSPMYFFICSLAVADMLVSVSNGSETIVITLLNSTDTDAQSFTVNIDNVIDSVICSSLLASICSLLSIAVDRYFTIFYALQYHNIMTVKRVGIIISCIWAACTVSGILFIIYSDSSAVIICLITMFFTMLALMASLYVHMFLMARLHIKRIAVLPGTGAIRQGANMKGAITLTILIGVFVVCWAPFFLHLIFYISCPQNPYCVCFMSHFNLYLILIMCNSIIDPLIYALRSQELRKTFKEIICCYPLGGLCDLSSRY

In data set [1], `COc1cc([C@@H](C)C(=O)N2C[C@@H](Nc3ccc(-c4ncccn4)c(C)n3)C3(CC3)C2)c(Cl)cn1` [Compound 114, (R)-2-(5-chloro-2-methoxypyridine-4-yl)-1-((S)-7-((6-methyl-5-(pyrimidine-2-yl)pyridine-2-yl)amino)-5-azaspiro[2.4]heptane-5-yl)propan-1-one] showed an F of 54.0%, an area under the curve (AUC) of 450 ng·h/mL, a maximum concentration (Cmax) of 197 ng/mL and a clearance of 39.9 mL/min/kg. For the same molecule, the half-life in data set [1] is 58.8 min. Moreover, the concentration for half-maximal inhibition (IC50) in data set [2] turned out to be 2.45 nM. In addition, the IC50 in data set [3] was 29500 nM.

With `COc1cc([C@@H](C)C(=O)N2C[C@@H](Nc3ccc(-c4nccc(C#N)n4)c(C)n3)C3(CC3)C2)c(F)cn1` [Compound 116, 2-(6-(((S)-5-((R)-2-(5-fluoro-2-methoxypyridine-4-yl)propionyl)-5-azaspiro[2.4]heptane-7-yl)amino)-2-methylpyridine-3-yl)pyrimidine-4-nitrile], the 50% inhibitory concentration (IC50) is 2.15 nM in data set [2] and above 30000 nM in data set [3].

For the molecule `COc1cc([C@@H](C)C(=O)N2CC[C@H](Nc3ccc(-c4ncccn4)c(C)n3)C2)c(Br)cn1` [Compound 200, (R)-2-(5-bromo-2-methoxypyridine-4-yl)-1-((S)-3-((6-methyl-5-(pyrimidine-2-yl)pyridine-2-yl)amino)pyrrolidine-1-yl)propan-1-one], the IC50 in data set [2] was 0.98 nM; in data set [3], 3750 nM.

On to `COc1cc([C@@H](C)C(=O)N2CC[C@H](Nc3ccc(-c4nccc(C#N)n4)c(C)n3)C2)c(F)cn1` [Compound 111, 2-(6-(((S)-1-((R)-2-(5-fluoro-2-methoxypyridine-4-yl)propionyl)pyrrolidine-3-yl)amino)-2-methylpyridine-3-yl)pyrimidine-4-nitrile], for which the half-inhibitory concentration (IC50) in data set [2] was found to be 3.4 nM; in data set [3], 2940 nM.

In data set [1], `COc1cc([C@@H](C)C(=O)N2CC[C@H](Nc3ccc(-c4ncccn4)c(C)n3)C2)c(Cl)cn1` [Compound 083-1, (R)-2-(5-chloro-2-methoxypyridine-4-yl)-1-((S)-3-((6-methyl-5-(pyrimidine-2-yl)pyridine-2-yl)amino)pyrrolidine-1-yl)propane-1-one] gave an F of 31.3%, an AUC of 240 ng·h/mL, a maximum concentration (Cmax) of 156 ng/mL and a clearance of 43.7 mL/min/kg. The same molecule gave a half-life in data set [1] of 39 min. This molecule came in with an IC50 in data set [2] of 1.82 nM. Moreover, the half-maximal inhibitory concentration (IC50) in data set [3] is 5800 nM.

A word on the AUC: it is the area under the concentration-time curve, a measure of exposure. Low readings indicate less exposure, high ones more exposure. For orientation: Cmax means the maximum level reached in the sampled fluid or tissue. What is called half-life is how long it takes for the measured level to halve. High values mean slow decline, low ones rapid decline. As usually defined, the IC50 is the concentration that inhibits the measured activity by half.
